Assay results taken from US20230348426A1, “OXOPYRROLIDINE FPR2 AGONISTS” (Bristol-Myers Squibb Company, priority 2020, published 2023).

Legend:
[1] = target: human FPR2 (Homo sapiens (Human), UniProt P25090); test: FPR2 cyclic adenosine monophosphate (cAMP) assay; assay type: cell-based; conditions: CHO cells overexpressing human FPR2; forskolin 5 µM; inhibition of cAMP production; read-out: hFPR2 cAMP2 EC50
Outline: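 CHO cells overexpressing human FPR2 (2,000/well) incubated 30 min at room temperature with compound (0.020 nM–100 µM, 1% DMSO), 5 µM forskolin and 200 µM IBMX.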

[2] = target: human FPR1 (Homo sapiens (Human), UniProt P21462); test: FPR1 cyclic adenosine monophosphate (cAMP) assay; assay type: cell-based; conditions: CHO cells overexpressing human FPR1; forskolin 10 µM; inhibition of cAMP production; read-out: hFPR1 cAMP EC50
Chain of human FPR1 (P21462 whole entry): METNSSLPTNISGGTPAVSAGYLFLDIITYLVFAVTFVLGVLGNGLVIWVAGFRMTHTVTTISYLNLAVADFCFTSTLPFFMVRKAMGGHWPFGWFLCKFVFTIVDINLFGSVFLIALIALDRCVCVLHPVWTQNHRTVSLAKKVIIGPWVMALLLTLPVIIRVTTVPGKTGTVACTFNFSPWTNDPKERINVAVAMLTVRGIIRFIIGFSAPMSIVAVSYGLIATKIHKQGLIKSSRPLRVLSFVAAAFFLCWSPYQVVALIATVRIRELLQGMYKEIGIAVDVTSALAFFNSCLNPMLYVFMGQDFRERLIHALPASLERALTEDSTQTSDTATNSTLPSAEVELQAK
Outline: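 CHO cells overexpressing human FPR1 (4,000 cells/well) stimulated with 10 µM forskolin plus 200 µM IBMX in the presence of compound (0.020 nM–100 µM, 1% DMSO), 30 min at room temperature. Intracellular cAMP measured by HTRF. Inhibition of cAMP production fitted to a 4-parameter logistic equation.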

Chain of human FPR2 (P25090 whole entry): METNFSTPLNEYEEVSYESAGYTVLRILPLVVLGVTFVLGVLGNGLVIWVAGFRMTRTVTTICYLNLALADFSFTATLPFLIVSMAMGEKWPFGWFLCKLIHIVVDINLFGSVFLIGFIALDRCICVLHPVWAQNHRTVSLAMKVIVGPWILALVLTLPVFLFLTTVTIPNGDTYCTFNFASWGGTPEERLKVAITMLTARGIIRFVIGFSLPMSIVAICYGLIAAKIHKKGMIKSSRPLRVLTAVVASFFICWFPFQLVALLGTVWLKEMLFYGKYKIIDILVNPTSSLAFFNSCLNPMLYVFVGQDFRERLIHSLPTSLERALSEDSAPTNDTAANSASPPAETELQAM

Row | EC50 [1] | EC50 [2] | Structure (SMILES)
1 | 17 nM | 60 nM | COCCn1c(C)ccc(N2C[C@@H](c3c(F)cc(OC)cc3F)[C@H](NC(=O)c3ccc(OC(F)F)cc3)C2=O)c1=O [Example 336]
2 | 4 nM | 1.3 nM | COc1cc(F)c([C@@H]2CN(c3cccn(CC(OC)C(F)(F)F)c3=O)C(=O)[C@H]2NC(=O)c2ccc(OC(F)(F)F)cc2)c(F)c1 (some centres unmarked) [Example 156]
3 | 2.3 nM | 1 nM | COc1ccc([C@@H]2CN(c3cccn(CC(OC)C(F)(F)F)c3=O)C(=O)[C@H]2NC(=O)c2ccc(OC(F)(F)F)cc2)c(F)c1 (some centres unmarked) [Example 364]
4 | 6.9 nM | 0.7 nM | COCC(C(=O)N(C)C)n1ccc(C)c(N2C[C@@H](c3c(F)cc(OC)cc3F)[C@H](NC(=O)c3ccc(OC(F)(F)F)cc3)C2=O)c1=O (some centres unmarked) [Example 248]
5 | 9 nM | 330 nM | COCCn1cnc(C)c(N2C[C@@H](c3c(F)cc(OC)cc3F)[C@H](NC(=O)c3ccc(Cl)cc3)C2=O)c1=O [Example 521]
6 | 45 nM | 300 nM | COc1cc(F)c([C@@H]2CN(c3cccc(C(F)F)n3)C(=O)[C@H]2NC(=O)c2ccc(OC(F)(F)F)cc2)c(F)c1 [Example 24]
7 | 3.6 nM | 0.5 nM | COCC(CO)n1ccc(C)c(N2C[C@@H](c3ccc(OC)cc3)[C@H](NC(=O)c3ccc(OC(F)(F)F)cc3)C2=O)c1=O (some centres unmarked) [Example 564]
8 | 6.8 nM | 470 nM | COc1cc(C2CCOCC2)nc(N2C(=O)[C@@H](NC(=O)c3ccc(OC(F)F)cc3)[C@H](c3c(F)cc(OC)cc3F)[C@H]2C)c1 [Example 539]
9 | 5.5 nM | 36 nM | COc1ccc([C@@H]2CN(c3cccn(CC(C)O)c3=O)C(=O)[C@H]2NC(=O)c2ccc(Cl)cc2)cc1 (some centres unmarked) [Example 391]
10 | 11 nM | 1700 nM | COCCn1ccnc1N1C[C@@H](c2c(F)cc(OC)cc2F)[C@H](NC(=O)c2ccc(Cl)cc2)C1=O [Example 650]
11 | 3.5 nM | 1600 nM | COc1cc(F)c([C@@H]2CN(c3ccc(F)c(N4C[C@@H]5C[C@H]4CN5C)n3)C(=O)[C@H]2NC(=O)c2ccc(OC(F)(F)F)cc2)c(F)c1 [Example 572]
12 | 5.5 nM | > 5000 nM | COc1cc(F)c([C@@H]2CN(c3cc(C)cc(C4CCN(CCO)CC4)n3)C(=O)[C@H]2NC(=O)c2ccc(OC(F)F)cc2)c(F)c1 [Example 715]
13 | 2.1 nM | 650 nM | COc1cc(F)c([C@@H]2CN(c3cccc(C4CCN(C)CC4)n3)C(=O)[C@H]2NC(=O)c2ccc(OC(F)F)cc2)c(F)c1 [Example 536]
14 | 4.3 nM | 21 nM | CCn1cccc(N2C[C@@H](c3c(F)cc(OC)cc3F)[C@H](NC(=O)c3ccc(OC(F)F)cc3)C2=O)c1=O [Example 169]
15 | 4.5 nM | 6 nM | COc1cc(F)c([C@@H]2CN(c3c(C)ccn(CC(C)O)c3=O)C(=O)[C@H]2NC(=O)c2ccc(OC(F)(F)F)cc2)c(F)c1 (some centres unmarked) [Example 359]
16 | 7.7 nM | 27 nM | COc1cc(F)c([C@@H]2CN(c3cccn(CC4CC(F)(F)C4)c3=O)C(=O)[C@H]2NC(=O)c2ccc(OC(F)(F)F)cc2)c(F)c1 [Example 269]
17 | 6.7 nM | > 5000 nM | COc1cc(C2CCNCC2)nc(N2C(=O)[C@@H](NC(=O)c3ccc(OC(F)F)cc3)[C@H](c3c(F)cc(OC)cc3F)[C@@H]2C)c1 [Example 529]
18 | 3.4 nM | > 5000 nM | COc1cc(C2CCNCC2)nc(N2C[C@@H](c3c(F)cc(OC)cc3F)[C@H](NC(=O)c3ccc(OC(F)F)cc3)C2=O)c1 [Example 534]
19 | 3.7 nM | 1100 nM | CCn1cncc(N2C[C@@H](c3c(F)cc(OC)cc3F)[C@H](NC(=O)c3ccc(OC(F)F)cc3)C2=O)c1=O [Example 369]
20 | 11 nM | > 1000 nM | COc1cc(F)c([C@@H]2CN(c3nccc(OC4CCOC4)c3C(F)(F)F)C(=O)[C@H]2NC(=O)c2ccc(Cl)cc2)c(F)c1 (some centres unmarked) [Example 708]
21 | 3.5 nM | 780 nM | COCCn1ccnc1N1C[C@@H](c2c(F)cc(OC)cc2F)[C@H](NC(=O)c2ccc(OC(F)F)cc2)C1=O [Example 651]
22 | 6.2 nM | 88 nM | CCn1cc(F)cc(N2C[C@@H](c3c(F)cc(OC)cc3F)[C@H](NC(=O)c3ccc(OC(F)(F)F)cc3)C2=O)c1=O [Example 230]
23 | 2.5 nM | 3.5 nM | COc1cc(F)c([C@@H]2CN(c3c(C)ccn(CC(F)F)c3=O)C(=O)[C@H]2NC(=O)c2ccc(OC(F)F)cc2)c(F)c1 [Example 90]
24 | 1.2 nM | 720 nM | COc1cc(F)c([C@@H]2CN(c3cccn4cc(C(F)(F)F)nc34)C(=O)[C@H]2NC(=O)c2ccc(Cl)cc2)c(F)c1 [Example 497]
25 | 90 nM | 64 nM | COc1cc(F)c([C@@H]2CN(c3c(C)ccn([C@H]4COC[C@@H]4O)c3=O)C(=O)[C@H]2NC(=O)c2ccc(Cl)cc2)c(F)c1 [Example 621]

Row | EC50 [1] | EC50 [2] | Structure (SMILES)
26 | 3.2 nM | 1080 nM | COc1cc(F)c([C@@H]2CN(c3nc(NC4CCOC4)ccc3F)C(=O)[C@H]2NC(=O)c2ccc(OC(F)F)cc2)c(F)c1 (some centres unmarked) [Example 122]
27 | 3.1 nM | 2.4 nM | COc1cc(F)c([C@@H]2CN(c3c(C)ccn(CCO)c3=O)C(=O)[C@H]2NC(=O)c2ccc(OC(F)(F)F)cc2)c(F)c1 [Example 115]
28 | 6.1 nM | 1900 nM | COc1cc(F)c([C@@H]2CN(c3nccc(N4CCN(S(C)(=O)=O)CC4)c3C(F)(F)F)C(=O)[C@H]2NC(=O)c2ccc(Cl)cc2)c(F)c1 [Example 224]
29 | 11.8 nM | 9.3 nM | COc1cc(F)c([C@@H]2CN(c3c(C)ccn(C4CCNC4)c3=O)C(=O)[C@H]2NC(=O)c2ccc(OC(F)(F)F)cc2)c(F)c1 (some centres unmarked) [Example 613]
30 | 1.5 nM | 77 nM | COc1cc(F)c([C@@H]2CN(c3nc(C(F)(F)F)ccc3C#N)C(=O)[C@H]2NC(=O)c2ccc(OC(F)(F)F)cc2)c(F)c1 [Example 551]
31 | 3.8 nM | 19 nM | COc1cc(F)c([C@@H]2CN(c3cccn(CC(F)F)c3=O)C(=O)[C@H]2NC(=O)c2ccc(OC(F)(F)F)cc2)c(F)c1 [Example 148]
32 | 7 nM | 11 nM | COc1cc(F)c([C@@H]2CN(c3cccn(CC(C)OC)c3=O)C(=O)[C@H]2NC(=O)c2ccc(OC(F)F)cc2)c(F)c1 (some centres unmarked) [Example 253]
33 | 11 nM | 11 nM | COc1ccc([C@@H]2CN(c3ccnn(CC(F)F)c3=O)C(=O)[C@H]2NC(=O)c2ccc(OC(F)F)cc2)cc1 [Example 691]
34 | 66 nM | 390 nM | COc1cc(F)c([C@@H]2CN(c3cccc(P(C)(C)=O)n3)C(=O)[C@H]2NC(=O)c2ccc(Cl)cc2)c(F)c1 [Example 511]
35 | 31 nM | 530 nM | COc1cc(F)c([C@H]2[C@H](NC(=O)c3ccc(OC(F)F)cc3)C(=O)N(c3cncn(CC(F)F)c3=O)[C@H]2C)c(F)c1 [Example 555]
36 | 20 nM | 53 nM | COc1cc(F)c([C@@H]2CN(c3c(C)c4c(n(CCO)c3=O)CCCC4)C(=O)[C@H]2NC(=O)c2ccc(OC(F)(F)F)cc2)c(F)c1 [Example 606]
37 | 1.3 nM | 770 nM | COc1cc(F)c([C@@H]2CN(c3cccc(C4CCN(CCO)CC4)n3)C(=O)[C@H]2NC(=O)c2ccc(OC(F)F)cc2)c(F)c1 [Example 527]
38 | 3 nM | 4 nM | COc1cc(F)c([C@@H]2CN(c3ccnn(CC(O)C(F)(F)F)c3=O)C(=O)[C@H]2NC(=O)c2ccc(OC(F)(F)F)cc2)c(F)c1 (some centres unmarked) [Example 466]
39 | 8.5 nM | 7.5 nM | COc1cc(F)c([C@@H]2CN(c3c(C)ccn(C4CCS(=O)(=O)C4)c3=O)C(=O)[C@H]2NC(=O)c2ccc(OC(F)(F)F)cc2)c(F)c1 (some centres unmarked) [Example 702]
40 | 1.8 nM | 1 nM | COCC(C(=O)N1CCCC1)n1cccc(N2C[C@@H](c3ccc(OC)cc3)[C@H](NC(=O)c3ccc(OC(F)F)cc3)C2=O)c1=O (some centres unmarked) [Example 444]
41 | 3.5 nM | 58 nM | COc1cc(F)c([C@@H]2CN(c3nc(N4CCC(O)C4=O)ccc3F)C(=O)[C@H]2NC(=O)c2ccc(OC(F)F)cc2)c(F)c1 (some centres unmarked) [Example 135]
42 | 9.4 nM | 19 nM | COc1cc(F)c([C@@H]2CN(c3c(C)ccn(C(CO)C(F)(F)F)c3=O)C(=O)[C@H]2NC(=O)c2ccc(OC(F)F)cc2)c(F)c1 (some centres unmarked) [Example 706]
43 | 110 nM | 840 nM | COCCn1cccc(N2C[C@@H](c3c(F)cc(OC)cc3F)[C@H](NC(=O)c3ccc(OC(C)C)cc3)C2=O)c1=O [Example 347]
44 | 8.7 nM | 6.6 nM | COc1cc(F)c([C@@H]2CN(c3c(C)ccn(C)c3=O)C(=O)[C@H]2NC(=O)c2ccc(OC(F)(F)F)cc2)c(F)c1 [Example 291]
45 | 2.6 nM | 3.6 nM | COCC(C(=O)N(C)C)n1cccc(N2C[C@@H](c3c(F)cc(OC)cc3F)[C@H](NC(=O)c3ccc(OC(F)F)cc3)C2=O)c1=O (some centres unmarked) [Example 92]
46 | 6.9 nM | 1900 nM | COc1cc(F)c([C@@H]2CN(c3cncnc3OC3CCOCC3)C(=O)[C@H]2NC(=O)c2ccc(Cl)cc2)c(F)c1 [Example 543]
47 | 2.8 nM | 4 nM | COc1ccc([C@@H]2CN(c3cccn(CC(C)O)c3=O)C(=O)[C@H]2NC(=O)c2ccc(OC(F)(F)F)cc2)c(F)c1 (some centres unmarked) [Example 435]
48 | 3.3 nM | 1100 nM | COc1cc(F)c([C@@H]2CN(c3nccc(NC4CCOC4)c3C(F)(F)F)C(=O)[C@H]2NC(=O)c2ccc(Cl)cc2)c(F)c1 (some centres unmarked) [Example 125]
49 | 7.4 nM | 83 nM | COc1cc(F)c([C@@H]2CN(c3cccn(CCF)c3=O)C(=O)[C@H]2NC(=O)c2ccc(OC(F)F)cc2)c(F)c1 [Example 258]
